Data: publication PMC10671849, “Synthesis and Evaluation of Marine-Inspired Compounds Result in Hybrids with Antitrypanosomal and Antileishmanial Activities” (Marine Drugs, 2023)
In brackets after ≈: the same amount, converted by molar mass.

Key:
Type in all cases: cell-based
[1] = test system: Candida albicans ATCC 10231; experiment: Antifungal broth microdilution (CLSI M27-A3), MIC/MLC; conditions: for MIC: Candida albicans, ATCC10231, broth microdilution, 16 to 512 µg/mL, 48 h at 36 °C
Experimental: (§1) All tested compounds (9a–9d, 10a–10c, 13, 14, and eugenol (1)) were prepared in DMSO (Sigma-Aldrich, St. Louis, MO, USA) at a concentration of 10 mg/mL. The reference drugs used (voriconazole (Sigma-Aldrich, St. Louis, MO, USA) for fungi and quality control; gentamicin (Sigma-Aldrich, St. Louis, MO, USA) for bacterial and quality control) were prepared at 6.4 mg/mL. The stock solutions of the compounds were stored at –20 °C until immediately before the assays and then were diluted in fresh culture medium, RPMI-1640 medium (Biochrom AG, Berlin, Germany) buffered with 3-(N-morpholino)propanesulfonic acid (MOPS—Sigma-Aldrich, St. Louis, MO, USA) for fungi and cation-adjusted Mueller–Hinton broth (MHBII—Becton Dickinson, France) for bacteria, henceforth referred to as RPMI and MHB, respectively.
(§2) Fungal strains, including reference strains and clinical isolates, were used for the study of the antifungal activity: a yeast reference strain from American Type Culture Collection (ATCC), Candida albicans ATCC 10231; filamentous fungi reference strain Aspergillus fumigatus ATCC 240305; and a clinical isolate of dermatophytes Trichophyton rubrum FF5. Candida krusei ATCC 6258 was used as a quality control. All fungal strains were stored in Sabouraud dextrose broth (SDB—Bio-Mèrieux, Marcy L’Etoile, France) with glycerol (20%) at −80 °C and were subcultured in Sabouraud dextrose agar (SDA—Bio-Mèrieux, Marcy L’Etoile, France) for 24–72 h (yeasts and A. fumigatus) or 5–7 days (T. rubrum) before each assay to obtain optimal growth and purity conditions. Two bacteria strains were used, one Gram positive and one Gram negative: Staphylococcus aureus ATCC 25923 and Escherichia coli ATCC 25922, respectively. The bacterial strains were stored in trypticase soy broth (TSB—Biolife, Milan, Italy) with glycerol (10%) at −80 °C and subcultured in Mueller–Hinton agar (MHA—Bio-Mèrieux, Marcy L’Etoile, France) for 24 h before each assay.
(§3) For the purpose of quantitatively measuring the antifungal activity in vitro, a broth microdilution method was used to determine the MICs using the CLSI reference protocols M27-A3 [27] for yeasts and M38-A2 [28] for filamentous fungi. In short, two-fold serial dilutions of each stock solution were prepared using RPMI medium (pH 7) to obtain a range of test concentrations from 16 to 512 μg/mL. The yeasts or spore suspensions were prepared from 24 to 72-h cultures (yeasts and Aspergillus) or from 5–7 days of cultures (dermatophyte) in saline solution (with a drop of Tween 20 for the filamentous fungi). The transmittance of the cell density of yeasts was adjusted to 0.5 McFarland standard, and for filamentous fungi, the spores were counted using a Neubauer camera. Dilutions were performed using RPMI to obtain cell final concentrations in the plate of 0.5–2.5 × 10^3 colony forming units (CFU)/mL for yeasts, 0.4–5 × 10^4 CFU/mL for Aspergillus, and 1–3 × 10^3 CFU/mL for dermatophytes. Plates with the prepared serial dilutions of the tested compounds were inoculated with the same volume of the fungal suspension, and sterility (wells with only culture medium), growth (wells with cell suspensions in culture medium), and DMSO controls (wells with cell suspensions in culture medium containing 1% DMSO) were included in each assay. […] For the tested compounds, MIC values were considered the minimum concentration that inhibited the yeast growth by 100% compared to the growth control. The reference drug, voriconazole, was tested against C. krusei ATCC 6258 as a quality control, and the results were within the limits of CLSI reference documents.
(§4) After MIC readings, 10 μL of suspension were collected from wells corresponding to the MIC and the highest concentration following the MIC and were deposited in SDA plates. The plates were incubated following the conditions previously mentioned for the MIC evaluation, and the MLC was determined as the lowest concentration at which no fungal growth is observed.

[2] = test system: Aspergillus fumigatus ATCC 240305; experiment: Antifungal broth microdilution (CLSI M38-A2), MIC/MLC; conditions: for MIC: Aspergillus fumigatus, ATCC240305, broth microdilution, 16 to 512 µg/mL, 48 h at 36 °C
Experimental: as §1, §2, §3, §4

[3] = test system: Trichophyton rubrum FF5; experiment: as above; conditions: for MIC: Trichophyton rubrum, FF5, broth microdilution, read-out: MIC T. rubrum; for MIC / MIC T. rubrum: 16 to 512 µg/mL, 5–7 days at 26 °C; for MIC T. rubrum: broth microdilution; for MLC T. rubrum: minimum lethal concentration, subculture on SDA after MIC reading
Experimental: as §1, §2, §3, §4

[4] = minimum lethal concentration, subculture on SDA after MIC reading

MIC [1] | MIC [2] | MIC [3] | MIC T. rubrum [3] | SMILES | MLC T. rubrum [3] | MLC C. albicans [1, 4] | MLC A. fumigatus [2, 4]
> 512 mg/L | > 512 mg/L | 512 mg/L (≈ 1260 µM) | 256 to 512 mg/L | C=CCc1cc(Cn2cc(C(=O)Nc3ccccc3C(N)=O)nn2)c(O)c(OC)c1 [9a, 1-(5-allyl-2-hydroxy-3-methoxybenzyl)-N-(2-carbamoylphenyl)-1H-1,2,3-triazole-4-carboxamide] | > 512 mg/L | – | –
> 512 mg/L | > 512 mg/L | > 512 mg/L | – | C=CCc1cc(Cn2cc(C(=O)Nc3ccc(OC)cc3C(N)=O)nn2)c(O)c(OC)c1 [9b, 1-(5-allyl-2-hydroxy-3-methoxybenzyl)-N-(2-carbamoyl-4-methoxyphenyl)-1H-1,2,3-triazole-4-carboxamide] | – | – | –
> 512 mg/L | > 512 mg/L | > 512 mg/L | – | C=CCc1cc(Cn2cc(-c3nc4ccc(OC)cc4c(=O)[nH]3)nn2)c(O)c(OC)c1 [10b, 2-(1-(5-allyl-2-hydroxy-3-methoxybenzyl)-1H-1,2,3-triazol-4-yl)-6-methoxyquinazolin-4(3H)-one] | – | – | –
> 512 mg/L | > 512 mg/L | 512 mg/L (≈ 1310 µM) | 256 to 512 mg/L | C=CCc1cc(Cn2cc(-c3nc4ccccc4c(=O)[nH]3)nn2)c(O)c(OC)c1 [10a, 2-(1-(5-allyl-2-hydroxy-3-methoxybenzyl)-1H-1,2,3-triazol-4-yl)quinazolin-4(3H)-one] | > 512 mg/L | – | –
> 512 mg/L | > 512 mg/L | 256 to 512 mg/L (≈ 656 to 1310 µM) | 256 to 512 mg/L | C=CCc1cc(Cn2cc(-c3nc4ccccc4c(=O)o3)nn2)c(O)c(OC)c1 [compound 14, 2-(1-(5-allyl-2-hydroxy-3-methoxybenzyl)-1H-1,2,3-triazol-4-yl)-4H-benzo[d][1,3]oxazin-4-one] | > 512 mg/L | – | –
> 512 mg/L | > 512 mg/L | 512 mg/L (≈ 1160 µM) | 256 to 512 mg/L | C=CCc1cc(Cn2cc(C(=O)Nc3ccc(Cl)cc3C(N)=O)nn2)c(O)c(OC)c1 [9d, 1-(5-allyl-2-hydroxy-3-methoxybenzyl)-N-(2-carbamoyl-4-chlorophenyl)-1H-1,2,3-triazole-4-carboxamide] | > 512 mg/L | – | –
> 512 mg/L | > 512 mg/L | > 512 mg/L | – | C=CCc1cc(Cn2cc(C(=O)Nc3ccc(F)cc3C(N)=O)nn2)c(O)c(OC)c1 [9c, 1-(5-allyl-2-hydroxy-3-methoxybenzyl)-N-(2-carbamoyl-4-fluorophenyl)-1H-1,2,3-triazole-4-carboxamide] | – | – | –
> 512 mg/L | > 512 mg/L | 512 mg/L (≈ 1260 µM) | 256 to 512 mg/L | C=CCc1cc(Cn2cc(-c3nc4ccc(F)cc4c(=O)[nH]3)nn2)c(O)c(OC)c1 [10c, 2-(1-(5-allyl-2-hydroxy-3-methoxybenzyl)-1H-1,2,3-triazol-4-yl)-6-fluoroquinazolin-4(3H)-one] | > 512 mg/L | – | –
> 512 mg/L | > 512 mg/L | > 512 mg/L | – | C=CCc1ccc(OCc2cn(CC(=O)Nc3ccccc3C(=O)O)nn2)c(OC)c1 [compound 13, 2-(2-(4-((4-allyl-2-methoxyphenoxy)methyl)-1H-1,2,3-triazol-1-yl)acetamido) benzoic acid] | – | – | –

SMILES | MIC [1] | MIC [2] | MIC [3] | MIC T. rubrum [3] | MLC T. rubrum [3] | MLC C. albicans [1, 4] | MLC A. fumigatus [2, 4]
C=CCc1ccc(O)c(OC)c1 [Eugenol, eugenol, reference compound] | 512 mg/L (≈ 3120 µM) | 512 mg/L (≈ 3120 µM) | 256 mg/L (≈ 1560 µM) | – | – | > 512 mg/L | > 512 mg/L
